Several values for one entry are separate records, joined by “and”; a condition that tells them apart may be missing. Equal values may be shown once. Where a name gives a salt, the structure may show the parent alone.
Legend:
[1] = pH of the donor solution (Tapentadol hydrochloride 100 mM in water) before and after iontophoresis; assay type: physicochemical
Protocol: The anode was placed in the donor chamber; the donor solution was 3 ml of Tapentadol hydrochloride (100 mM, i.e. 25.78 mg/ml of Tapentadol hydrochloride, 22.13 mg/ml of base) in water. The cathode was placed in the receptor chamber, which contained 3 ml of phosphate-buffered saline, pH 7.4. Both chambers were stirred by magnets.
Voltages were as expected for 6 cells in series (range was 6 to 28 volts). The pH of the donor solution was measured after termination of 24 hours of iontophoresis, and ranged from 6.47 to 6.99. The pH of drug in the donor prior to commencing the experiment was 5.07 (5.34 for the 8 hour iontophoresis).

[2] = passive transdermal delivery of Tapentadol hydrochloride, 24 hours, no current (comparative example 1b, passive control); assay type: in vitro ADME, pig; conditions: for cumulative, passive delivery across the skin, Mean / cumulative, passive delivery across the skin, as tapentadol base, Mean / drug flux across the skin, Mean / drug flux across the skin, as tapentadol base, Mean: n=2; for cumulative, passive delivery across the skin, Mean / cumulative, passive delivery across the skin, as tapentadol base, Mean / drug flux across the skin, Mean / drug flux across the skin, as tapentadol base, Mean / drug flux across the skin / cumulative, passive delivery across the skin: patch area 0.64 cm^2; for drug flux across the skin, Mean / drug flux across the skin, as tapentadol base, Mean / drug flux across the skin: passive, no current; for drug flux across the skin / cumulative, passive delivery across the skin: single cells 1-2
Protocol: For comparison, the rate of transdermal delivery of Tapentadol hydrochloride for a period of 24 hours has been determined without any means of electric-field-assisted administration (passive control).
The flux of Tapentadol hydrochloride from passive diffusion alone was measured (n=2). The experimental set-up was exactly as previously described, except that no electrodes were placed in the diffusion cell and no current was applied. The temperature was held at 37° C. The receptor solution was sampled and assayed at 0.5, 1, 1.5, 2, 3, 4, 5, 6, 7, 8 and 24 hours. 1 ml of receptor solution was removed and replaced with fresh PBS at each sampling point.

With `CC[C@@H](c1cccc(O)c1)[C@@H](C)CN(C)C` [Tapentadol hydrochloride] the “pH of drug in the donor” value ([1]; prior to commencing the experiment (8 hour iontophoresis)) was 5.34, the “pH of drug in the donor” value ([1]; prior to commencing the experiment (24 hour iontophoresis)) was 5.07 and the “cumulative, passive delivery across the skin, Mean” value ([2]; 0.5 h) was 0 µg. For the same compound, the “cumulative, passive delivery across the skin, as tapentadol base, Mean” value (shortened to “cumulative … as tapentadol base, Mean”) ([2]; 0.5 h) was 0 µg, the “drug flux across the skin, Mean” value ([2]; 0.5 h) was 0 µg/h and the “drug flux across the skin, as tapentadol base, Mean” value ([2]; 0.5 h) was 0 µg/h. For the same compound, the “drug flux across the skin” value ([2]; 0.5 h) was 0 µg/h, the “cumulative, passive delivery across the skin” value ([2]; 0.5 h) was 0 µg and the “cumulative, passive delivery across the skin, Mean” value ([2]; 1 h) was 0 µg. For the same compound, the “cumulative … as tapentadol base, Mean” value ([2]; 1 h) was 0 µg, the “drug flux across the skin, Mean” value ([2]; 1 h) was 0 µg/h and the “drug flux across the skin, as tapentadol base, Mean” value ([2]; 1 h) was 0 µg/h. The “drug flux across the skin” value ([2]; 1 h) was 0 µg/h, the “cumulative, passive delivery across the skin” value ([2]; 1 h) was 0 µg and the “cumulative, passive delivery across the skin, Mean” value ([2]; 1.5 h) was 0 µg. The “cumulative … as tapentadol base, Mean” value ([2]; 1.5 h) was 0 µg, the “drug flux across the skin, Mean” value ([2]; 1.5 h) was 0 µg/h and the “drug flux across the skin, as tapentadol base, Mean” value ([2]; 1.5 h) was 0 µg/h. For the same compound, the “drug flux across the skin” value ([2]; 1.5 h) was 0 µg/h, the “cumulative, passive delivery across the skin” value ([2]; 1.5 h) was 0 µg and the “cumulative, passive delivery across the skin, Mean” value ([2]; 2 h) was 0 µg. The “cumulative … as tapentadol base, Mean” value ([2]; 2 h) was 0 µg, the “drug flux across the skin, Mean” value ([2]; 2 h) was 0 µg/h and the “drug flux across the skin, as tapentadol base, Mean” value ([2]; 2 h) was 0 µg/h. For the same compound, the “drug flux across the skin” value ([2]; 2 h) was 0 µg/h, the “cumulative, passive delivery across the skin” value ([2]; 2 h) was 0 µg and the “cumulative, passive delivery across the skin, Mean” value ([2]; 3 h) was 2 µg. The “cumulative … as tapentadol base, Mean” value ([2]; 3 h) was 1 µg, the “drug flux across the skin, Mean” value ([2]; 3 h) was 1 µg/h and the “drug flux across the skin, as tapentadol base, Mean” value ([2]; 3 h) was 1 µg/h. The “drug flux across the skin” value ([2]; 3 h) was 1 µg/h, the “cumulative, passive delivery across the skin” value ([2]; 3 h, listed as Tapentadol HCl, hydrochloride) was 2 µg and 1 µg and the “cumulative, passive delivery across the skin, Mean” value ([2]; 4 h) was 4 µg. For the same compound, the “cumulative … as tapentadol base, Mean” value ([2]; 4 h) was 3 µg, the “drug flux across the skin, Mean” value ([2]; 4 h) was 2 µg/h and the “drug flux across the skin, as tapentadol base, Mean” value ([2]; 4 h) was 2 µg/h. The “drug flux across the skin” value ([2]; 4 h) was 2 µg/h, the “cumulative, passive delivery across the skin” value ([2]; 4 h, listed as Tapentadol HCl, hydrochloride) was 4 µg and 3 µg and the “cumulative, passive delivery across the skin, Mean” value ([2]; 5 h) was 6 µg. The “cumulative … as tapentadol base, Mean” value ([2]; 5 h) was 5 µg, the “drug flux across the skin, Mean” value ([2]; 5 h) was 3 µg/h and the “drug flux across the skin, as tapentadol base, Mean” value ([2]; 5 h) was 2 µg/h. The “drug flux across the skin” value ([2]; 5 h, hydrochloride) was 3 µg/h and 2 µg/h, the “cumulative, passive delivery across the skin” value ([2]; 5 h, listed as Tapentadol HCl, hydrochloride) was 7 µg and 5 µg and the “cumulative, passive delivery across the skin, Mean” value ([2]; 6 h) was 9 µg. For the same compound, the “cumulative … as tapentadol base, Mean” value ([2]; 6 h) was 8 µg, the “drug flux across the skin, Mean” value ([2]; 6 h) was 3 µg/h and the “drug flux across the skin, as tapentadol base, Mean” value ([2]; 6 h) was 3 µg/h. For the same compound, the “drug flux across the skin” value ([2]; 6 h, hydrochloride) was 4 µg/h and 3 µg/h, the “cumulative, passive delivery across the skin” value ([2]; 6 h, listed as Tapentadol HCl, hydrochloride) was 11 µg and 8 µg and the “cumulative, passive delivery across the skin, Mean” value ([2]; 7 h) was 13 µg. The “cumulative … as tapentadol base, Mean” value ([2]; 7 h) was 11 µg, the “drug flux across the skin, Mean” value ([2]; 7 h) was 3 µg/h and the “drug flux across the skin, as tapentadol base, Mean” value ([2]; 7 h) was 3 µg/h. For the same compound, the “drug flux across the skin” value ([2]; 7 h, hydrochloride) was 4 µg/h and 3 µg/h, the “cumulative, passive delivery across the skin” value ([2]; 7 h, listed as Tapentadol HCl, hydrochloride) was 14 µg and 11 µg and the “cumulative, passive delivery across the skin, Mean” value ([2]; 8 h) was 18 µg. For the same compound, the “cumulative … as tapentadol base, Mean” value ([2]; 8 h) was 15 µg, the “drug flux across the skin, Mean” value ([2]; 8 h) was 5 µg/h and the “drug flux across the skin, as tapentadol base, Mean” value ([2]; 8 h) was 4 µg/h. For the same compound, the “drug flux across the skin” value ([2]; 8 h, hydrochloride) was 5 µg/h and 4 µg/h, the “cumulative, passive delivery across the skin” value ([2]; 8 h, listed as Tapentadol HCl, hydrochloride) was 20 µg and 15 µg and the “cumulative, passive delivery across the skin, Mean” value ([2]; 24 h) was 186 µg. The “cumulative … as tapentadol base, Mean” value ([2]; 24 h) was 159 µg, the “drug flux across the skin, Mean” value ([2]; 24 h) was 11 µg/h and the “drug flux across the skin, as tapentadol base, Mean” value ([2]; 24 h) was 9 µg/h. The “drug flux across the skin” value ([2]; 24 h, hydrochloride) was 11 µg/h and 10 µg/h, the “cumulative, passive delivery across the skin” value ([2]; 24 h, listed as Tapentadol HCl, hydrochloride) was 192 µg and 179 µg and the “rate of passive diffusion” value ([2]; by 24 hours) was 16 μg/h/cm2. The “time within which steady state flux was not reached” value ([2]; comparative example 1b, passive diffusion) was over 8 h.

From patent publication US10632195B2, “Pharmaceutical device for electric-field assisted administration of Tapentadol and method of administering Tapentadol with same” (Gruenenthal GmbH, priority 2012, dated 2020)
